Test results as given in PubChem BioAssay (NCI).
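GI50 is the concentration that inhibits growth by half. TGI marks complete inhibition of growth.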

Key:
Assay in all cases: NCI anticancer screen, dose series, 384-well format
RPMI-8226 leukemia = tested on: RPMI-8226 leukemia
786-0 renal = tested on: 786-0 renal
PC-3 prostate = tested on: PC-3 prostate
NCI/ADR-RES ovarian = tested on: NCI/ADR-RES ovarian
HOP-62 NSCLC = tested on: HOP-62 NSCLC
HT29 colon = tested on: HT29 colon
U251 glioblastoma = tested on: U251 glioblastoma
UACC-257 melanoma = tested on: UACC-257 melanoma
MDA-MB-231 breast = tested on: MDA-MB-231 breast
M14 melanoma = tested on: M14 melanoma
NCI-H23 lung = tested on: NCI-H23 lung
COLO 205 colon = tested on: COLO 205 colon
A549 NSCLC = tested on: A549 NSCLC
SNB-75 CNS = tested on: SNB-75 CNS
SR leukemia = tested on: SR leukemia
EKVX NSCLC = tested on: EKVX NSCLC
CAKI-1 renal = tested on: CAKI-1 renal
T-47D breast = tested on: T-47D breast
K-562 leukemia = tested on: K-562 leukemia
SK-MEL-5 melanoma = tested on: SK-MEL-5 melanoma
NCI-H226 lung = tested on: NCI-H226 lung
MDA-MB-468 breast = tested on: MDA-MB-468 breast
A498 renal = tested on: A498 renal
SN12C renal = tested on: SN12C renal
ACHN renal = tested on: ACHN renal
KM12 colon = tested on: KM12 colon
MDA-MB-435 melanoma = tested on: MDA-MB-435 melanoma
HS 578T breast = tested on: HS 578T breast
HCT-15 colon = tested on: HCT-15 colon
UACC-62 melanoma = tested on: UACC-62 melanoma

CO[C@H]1C[C@@H]2CC[C@@H](C)[C@@](O)(O2)C(=O)C(=O)N2CCCC[C@H]2C(=O)O[C@H]([C@H](C)C[C@@H]2CC[C@@H](OCCO)[C@H](OC)C2)CC(=O)[C@H](C)C=C(C)[C@@H](O)[C@@H](OC)C(=O)[C@H](C)C[C@H](C)/C=C/C=C/C=C1C
TGI (RPMI-8226 leukemia): 1.87 µM | GI50 ([…]-0 renal): 0.777 µM | TGI (786-0 renal): 21.1 µM | GI50 (PC-3 prostate): 0.549 µM | TGI (PC-3 prostate): 17.7 µM | GI50 (NCI/ADR-RES ovarian): 13.5 µM | TGI (NCI/ADR-RES ovarian): 28.7 µM | GI50 (HOP-62 NSCLC): 0.548 µM | TGI (HOP-62 NSCLC): 20.7 µM | GI50 (HT29 colon): 11.5 µM | TGI (HT29 colon): 23.7 µM | GI50 (U251 glioblastoma): 5.77 µM | TGI (U251 glioblastoma): 21.1 µM | GI50 (UACC-257 melanoma): 16.5 µM | TGI (UACC-257 melanoma): 30.1 µM | GI50 (MDA-MB-231 breast): 12.5 µM | TGI (MDA-MB-231 breast): 25.1 µM | GI50 (M14 melanoma): 12.1 µM | TGI (M14 melanoma): 24.5 µM | GI50 (NCI-H23 lung): 11.6 µM | TGI (NCI-H23 lung): 23.9 µM | GI50 (COLO 205 colon): 14.6 µM | TGI (COLO 205 colon): 27.7 µM | TGI (A549 NSCLC): 20 µM | GI50 (SNB-75 CNS): 0.124 µM | TGI (SNB-75 CNS): 4.55 µM | GI50 (SR leukemia): < 0.01 µM | TGI (SR leukemia): 1.3 µM | GI50 (EKVX NSCLC): 1.79 µM | TGI (EKVX NSCLC): 20.4 µM | GI50 (CAKI-1 renal): 5.67 µM | TGI (CAKI-1 renal): 21.4 µM | TGI (T-47D breast): 16.2 µM | GI50 (K-562 leukemia): 2.04 µM | TGI (K-562 leukemia): 15.3 µM | GI50 (SK-MEL-5 melanoma): 0.414 µM | TGI (SK-MEL-5 melanoma): 3.78 µM | GI50 (NCI-H226 lung): 9.49 µM | TGI (NCI-H226 lung): 21.8 µM | GI50 (MDA-MB-468 breast): < 0.01 µM | TGI (MDA-MB-468 breast): 8.91 µM | GI50 (A498 renal): < 0.0276 µM | TGI (A498 renal): 17.4 µM | GI50 (SN12C renal): 11.7 µM | TGI (SN12C renal): 24.2 µM | GI50 (ACHN renal): 2.93 µM | TGI (ACHN renal): 22.2 µM | GI50 (KM12 colon): 11.2 µM | TGI (KM12 colon): 23.3 µM | GI50 (MDA-MB-435 melanoma): 16.2 µM | TGI (MDA-MB-435 melanoma): 29.9 µM | TGI (HS 578T breast): 7.24 µM | GI50 (HCT-15 colon): 1.43 µM | TGI (HCT-15 colon): 18.7 µM | GI50 (UACC-62 melanoma): 6.61 µM | TGI (UACC-62 melanoma): 14.9 µM
